Measurements published in PubChem BioAssay AID1963968 (Molecular Pharmacology Branch, DTP, NCI, 2024).

Tested on: 945468-187-T-J3-PDC spheroids with HUVEC/MSC, viability
Assay: Anticancer human tumor 945468-187-T-J3-PDC patient-derived rectal carcinoma cell line growth inhibition [PI3K]
Details: for IC50: curve of first compound; for viability, T/C: stronger effect = lower value
Summary of the method: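 Complex 3D spheroids (cancer cells + endothelial HUVEC + mesenchymal stem cells); drug pairs of targeted agent x inavolisib/alpelisib/duvelisib/copanlisib; half-log series from ~Cmax, max 10 microM if Cmax unknown; endpoint viability.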

[1] = second compound 0.0316 µM, first compound 0.0316 µM
[2] = second compound 0.0316 µM, first compound 0.1 µM
[3] = second compound 0.1 µM, first compound 0.0316 µM
[4] = second compound 0.1 µM, first compound 0.1 µM
[5] = second compound 0.316 µM, first compound 0.0316 µM
[6] = second compound 0.316 µM, first compound 0.1 µM
[7] = second compound 1 µM, first compound 0.0316 µM
[8] = second compound 1 µM, first compound 0.1 µM
[9] = second compound 0.00316 µM, first compound 0.0316 µM
[10] = second compound 0.00316 µM, first compound 0.1 µM
[11] = second compound 0.00316 µM, first compound 0.316 µM
[12] = second compound 0.00316 µM, first compound 1 µM
[13] = second compound 0.00316 µM, first compound 3.16 µM
[14] = second compound 0.00316 µM, first compound 10 µM
[15] = second compound 0.01 µM, first compound 0.0316 µM
[16] = second compound 0.01 µM, first compound 0.1 µM
[17] = second compound 0.01 µM, first compound 0.316 µM
[18] = second compound 0.01 µM, first compound 1 µM
[19] = second compound 0.01 µM, first compound 3.16 µM
[20] = second compound 0.01 µM, first compound 10 µM
[21] = second compound 0.0316 µM, first compound 0.316 µM
[22] = second compound 0.0316 µM, first compound 1 µM
[23] = second compound 0.0316 µM, first compound 3.16 µM
[24] = second compound 0.0316 µM, first compound 10 µM
[25] = second compound 0.1 µM, first compound 0.316 µM
[26] = second compound 0.1 µM, first compound 1 µM
[27] = second compound 0.1 µM, first compound 3.16 µM
[28] = second compound 0.1 µM, first compound 10 µM
[29] = second compound 0.316 µM, first compound 0.316 µM
[30] = second compound 0.316 µM, first compound 1 µM
[31] = second compound 0.316 µM, first compound 3.16 µM
[32] = second compound 0.316 µM, first compound 10 µM
[33] = second compound 1 µM, first compound 0.316 µM
[34] = second compound 1 µM, first compound 1 µM
[35] = second compound 1 µM, first compound 3.16 µM
[36] = second compound 1 µM, first compound 10 µM
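Note: spheroids exposed to agents for 7 days before viability read.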
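Throughout, for viability, T/C: 100% = DMSO vehicle control viability.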

`CC(C)n1nc(-c2ccc3oc(N)nc3c2)c2c(N)ncnc21` + Cc1nc(NC(=O)N2CCCC2C(N)=O)sc1-c1ccnc(C(C)(C)C(F)(F)F)c1 was tested, and the IC50 (second compound 0.0316 µM) was over 0.1 µM, the IC50 (second compound 0.1 µM) was over 0.1 µM and the IC50 (second compound 0.316 µM) was over 0.1 µM. It also gave an IC50 (second compound 1 µM) of 0.077 µM, an IC50 (second compound 3.16 µM) of 0.0302 µM and an IC50 (second compound 10 µM) of 0.0107 µM. It also gave a viability, T/C (second compound 0.0316 µM, first compound 0.000316 µM) of 105%, a viability, T/C (second compound 0.0316 µM, first compound 0.001 µM) of 118% and a viability, T/C (second compound 0.0316 µM, first compound 0.00316 µM) of 98.8%. For the same molecule, the viability, T/C (second compound 0.0316 µM, first compound 0.01 µM) was 114%, the viability, T/C [1] was 127% and the viability, T/C [2] was 65.5%. It also gave a viability, T/C (second compound 0.1 µM, first compound 0.000316 µM) of 109%, a viability, T/C (second compound 0.1 µM, first compound 0.001 µM) of 109% and a viability, T/C (second compound 0.1 µM, first compound 0.00316 µM) of 95.4%. For the same molecule, the viability, T/C (second compound 0.1 µM, first compound 0.01 µM) was 115%, the viability, T/C [3] was 118% and the viability, T/C [4] was 54.5%. It also gave a viability, T/C (second compound 0.316 µM, first compound 0.000316 µM) of 113%, a viability, T/C (second compound 0.316 µM, first compound 0.001 µM) of 104% and a viability, T/C (second compound 0.316 µM, first compound 0.00316 µM) of 97.5%. For the same molecule, the viability, T/C (second compound 0.316 µM, first compound 0.01 µM) was 121%, the viability, T/C [5] was 111% and the viability, T/C [6] was 53.3%. For the same molecule, the viability, T/C (second compound 1 µM, first compound 0.000316 µM) was 116%, the viability, T/C (second compound 1 µM, first compound 0.001 µM) was 114% and the viability, T/C (second compound 1 µM, first compound 0.00316 µM) was 101%. It also gave a viability, T/C (second compound 1 µM, first compound 0.01 µM) of 109%, a viability, T/C [7] of 84% and a viability, T/C [8] of 39.6%. The viability, T/C (second compound 3.16 µM, first compound 0.000316 µM) was 108%, the viability, T/C (second compound 3.16 µM, first compound 0.001 µM) was 104% and the viability, T/C (second compound 3.16 µM, first compound 0.00316 µM) was 102%. It also gave a viability, T/C (second compound 3.16 µM, first compound 0.01 µM) of 77.2%, a viability, T/C (second compound 3.16 µM, first compound 0.0316 µM) of 49.9% and a viability, T/C (second compound 3.16 µM, first compound 0.1 µM) of 29.7%. It also gave a viability, T/C (second compound 10 µM, first compound 0.000316 µM) of 68%, a viability, T/C (second compound 10 µM, first compound 0.001 µM) of 53.3% and a viability, T/C (second compound 10 µM, first compound 0.00316 µM) of 64.3%. It also gave a viability, T/C (second compound 10 µM, first compound 0.01 µM) of 50.2%, a viability, T/C (second compound 10 µM, first compound 0.0316 µM) of 31.8% and a viability, T/C (second compound 10 µM, first compound 0.1 µM) of 22.7%.
Molecule `Cn1nccc1Nc1nccc(-c2ccn(C(CO)c3ccc(Cl)c(F)c3)c(=O)c2)n1` (stereo unspecified) + CC(Nc1ccc2c(c1)OCCn1cc(N3C(=O)OCC3C(F)F)nc1-2)C(N)=O has an IC50 (second compound 0.00316 µM) of over 10 µM, an IC50 (second compound 0.01 µM) of over 10 µM and an IC50 (second compound 0.0316 µM) of over 10 µM. The IC50 (second compound 0.1 µM) was over 10 µM, the IC50 (second compound 0.316 µM) was over 10 µM and the IC50 (second compound 1 µM) was over 10 µM. For the same molecule, the viability, T/C [9] was 93.2%, the viability, T/C [10] was 108% and the viability, T/C [11] was 103%. The viability, T/C [12] was 120%, the viability, T/C [13] was 143% and the viability, T/C [14] was 145%. For the same molecule, the viability, T/C [15] was 103%, the viability, T/C [16] was 101% and the viability, T/C [17] was 97.5%. The viability, T/C [18] was 115%, the viability, T/C [19] was 124% and the viability, T/C [20] was 131%. For the same molecule, the viability, T/C [1] was 106%, the viability, T/C [2] was 99.4% and the viability, T/C [21] was 106%. For the same molecule, the viability, T/C [22] was 122%, the viability, T/C [23] was 131% and the viability, T/C [24] was 123%. For the same molecule, the viability, T/C [3] was 102%, the viability, T/C [4] was 108% and the viability, T/C [25] was 115%. The viability, T/C [26] was 124%, the viability, T/C [27] was 115% and the viability, T/C [28] was 116%. It also gave a viability, T/C [5] of 97.3%, a viability, T/C [6] of 91.7% and a viability, T/C [29] of 97.2%. The viability, T/C [30] was 89.3%, the viability, T/C [31] was 78.3% and the viability, T/C [32] was 80.1%. It also gave a viability, T/C [7] of 78.8%, a viability, T/C [8] of 79.8% and a viability, T/C [33] of 65%. The viability, T/C [34] was 72%, the viability, T/C [35] was 60.7% and the viability, T/C [36] was 62.7%.
For `CC1(C)CCC(Nc2ncc(C(F)(F)F)c(-c3c[nH]c4c(P(C)(C)=O)c(C#N)ccc34)n2)CN1` (stereo unspecified) + CC(Nc1ccc2c(c1)OCCn1cc(N3C(=O)OCC3C(F)F)nc1-2)C(N)=O, the IC50 (second compound 0.00316 µM) was 5.65 µM, the IC50 (second compound 0.01 µM) was 5.69 µM and the IC50 (second compound 0.0316 µM) was 5.24 µM. The IC50 (second compound 0.1 µM) was 5.3 µM, the IC50 (second compound 0.316 µM) was 3.77 µM and the IC50 (second compound 1 µM) was 1.99 µM. The viability, T/C [9] was 83.5%, the viability, T/C [10] was 85.8% and the viability, T/C [11] was 69.1%. The viability, T/C [12] was 85.8%, the viability, T/C [13] was 86.1% and the viability, T/C [14] was 18.5%. The viability, T/C [15] was 83.8%, the viability, T/C [16] was 83.5% and the viability, T/C [17] was 72.3%. The viability, T/C [18] was 94.7%, the viability, T/C [19] was 96.6% and the viability, T/C [20] was 15.1%. The viability, T/C [1] was 82.9%, the viability, T/C [2] was 77.4% and the viability, T/C [21] was 71.2%. It also gave a viability, T/C [22] of 79.8%, a viability, T/C [23] of 87.3% and a viability, T/C [24] of 11.8%. The viability, T/C [3] was 86.1%, the viability, T/C [4] was 88.6% and the viability, T/C [25] was 70.8%. It also gave a viability, T/C [26] of 77.6%, a viability, T/C [27] of 82% and a viability, T/C [28] of 11.9%. For the same molecule, the viability, T/C [5] was 82.4%, the viability, T/C [6] was 79.2% and the viability, T/C [29] was 80.7%. For the same molecule, the viability, T/C [30] was 61.4%, the viability, T/C [31] was 63.2% and the viability, T/C [32] was 8.03%. For the same molecule, the viability, T/C [7] was 80.7%, the viability, T/C [8] was 62.4% and the viability, T/C [33] was 62%. It also gave a viability, T/C [34] of 51.6%, a viability, T/C [35] of 52.2% and a viability, T/C [36] of 4.39%.
